Test results taken from the supplement of paper PMC10307832.

Legend:
Experiment in all cases: relative viability (nuclei count vs DMSO), 5 days (fraction); higher = more cells survive
[1] = compound: OCc1c[nH]c2ccccc12 [Indole-3-carbinol] + CC(=O)c1c(C)c2cnc(Nc3ccc(N4CCNCC4)cn3)nc2n(C2CCCC2)c1=O [Palbociclib] (partner 0.5 µM)
Procedure, shortened: (§1)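 Lung cancer cell lines were pin-tool dosed in 1536-well plates on the day after seeding, with either a lone drug or a fixed anchor-drug dose plus five library-drug doses (not always all listed) in √10 steps. Nuclei were counted on 4× images after 5 days. Relative viability is the ratio of treated-well to vehicle-well nuclei counts, with each value a median of duplicate plates.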

[2] = compound: OCc1c[nH]c2ccccc12 [Indole-3-carbinol] + Cc1cc(Nc2cc(N3CCN(C)CC3)nc(Sc3ccc(NC(=O)C4CC4)cc3)n2)n[nH]1 [Tozasertib] (partner 0.1 µM)
Procedure, shortened: as §1

[3] = compound: OCc1c[nH]c2ccccc12 [Indole-3-carbinol] + Cc1nc(Nc2ncc(C(=O)Nc3c(C)cccc3Cl)s2)cc(N2CCN(CCO)CC2)n1 [Dasatinib] (partner 0.075 µM)
Procedure, shortened: as §1

[4] = compound: OCc1c[nH]c2ccccc12 [Indole-3-carbinol] + CC(=O)Nc1cccc(-n2c(=O)n(C3CC3)c(=O)c3c(Nc4ccc(I)cc4F)n(C)c(=O)c(C)c32)c1 [Trametinib] (partner 0.02 µM)
Procedure, shortened: as §1

[5] = compound: OCc1c[nH]c2ccccc12 [Indole-3-carbinol] + NC(=O)Nc1cc(-c2cccc(F)c2)sc1C(=O)N[C@H]1CCCNC1 [AZD7762] (partner 0.2 µM)
Procedure, shortened: as §1

Cell Line | relative viability ([1]; first compound 0.253 µM) | relative viability ([1]; first compound 0.8 µM) | relative viability ([1]; first compound 2.53 µM) | relative viability ([1]; first compound 8 µM) | relative viability ([2]; first compound 0.253 µM) | relative viability ([2]; first compound 0.8 µM) | relative viability ([2]; first compound 2.53 µM) | relative viability ([2]; first compound 8 µM) | relative viability ([3]; first compound 0.253 µM) | relative viability ([3]; first compound 0.8 µM) | relative viability ([3]; first compound 2.53 µM) | relative viability ([3]; first compound 8 µM) | relative viability ([4]; first compound 0.253 µM) | relative viability ([4]; first compound 0.8 µM) | relative viability ([4]; first compound 2.53 µM) | relative viability ([4]; first compound 8 µM) | relative viability ([5]; first compound 0.253 µM) | relative viability ([5]; first compound 0.8 µM) | relative viability ([5]; first compound 2.53 µM) | relative viability ([5]; first compound 8 µM)
PC-3 [JPC-3] | 0.574 | 0.568 | 0.557 | 0.507 | 0.873 | 0.981 | 0.879 | 0.866 | 0.979 | 1.02 | 0.986 | 0.949 | 0.749 | 0.719 | 0.678 | 0.667 | 0.723 | 0.925 | 0.765 | 0.91
LCLC-97TM1 | 0.237 | 0.266 | 0.225 | 0.236 | 0.324 | 0.299 | 0.235 | 0.251 | 0.835 | 0.949 | 0.944 | 0.908 | 0.215 | 0.215 | 0.178 | 0.23 | 0.39 | 0.297 | 0.236 | 0.234
NCI-H1993 | 0.713 | 0.635 | 0.664 | 0.521 | 0.614 | 0.629 | 0.579 | 0.562 | 0.762 | 0.619 | 0.662 | 0.605 | 0.483 | 0.519 | 0.513 | 0.554 | 0.827 | 0.876 | 0.691 | 0.843
HARA | 0.303 | 0.249 | 0.281 | 0.232 | 0.119 | 0.125 | 0.12 | 0.179 | 0.289 | 0.296 | 0.323 | 0.198 | 0.673 | 0.834 | 0.818 | 0.652 | 0.355 | 0.239 | 0.313 | 0.463
NCI-H460 | 0.149 | 0.17 | 0.229 | 0.19 | 0.426 | 0.385 | 0.532 | 0.443 | 0.451 | 0.59 | 0.499 | 0.444 | 0.119 | 0.151 | 0.11 | 0.129 | 0.652 | 0.602 | 0.679 | 0.645
EKVX | 0.384 | 0.36 | 0.386 | 0.452 | 0.423 | 0.428 | 0.421 | 0.383 | 0.564 | 0.54 | 0.535 | 0.67 | 0.298 | 0.344 | 0.297 | 0.313 | 0.759 | 0.752 | 0.744 | 0.633
NCI-H1755 | 0.489 | 0.444 | 0.487 | 0.423 | 0.642 | 0.592 | 0.647 | 0.535 | 0.441 | 0.456 | 0.706 | 0.364 | 0.784 | 0.737 | 0.815 | 0.733 | 0.463 | 0.42 | 0.5 | 0.42
NCI-H1395 | 0.625 | 0.589 | 0.734 | 0.531 | 0.705 | 0.77 | 0.734 | 0.758 | 0.386 | 0.392 | 0.458 | 0.413 | 1 | 1.01 | 1.08 | 0.995 | 0.404 | 0.41 | 0.379 | 0.399
